Laboratory results as given in ChEMBL document CHEMBL4402573, “Discovery and Optimization of α-Mangostin Derivatives as Novel PDE4 Inhibitors for the Treatment of Vascular Dementia” (J Med Chem, 2020).
The source made the active and inactive calls. The rule behind the calls is not given here.

What was measured:
[1] = molecular target: 3',5'-cyclic-AMP phosphodiesterase 4D (Homo sapiens, UniProt Q08499); assay: Inhibition of human PDE4D2 (86 to 413 residues) expressed in Escherichia coli BL21 codon-plus cells using [3H]cAMP as substrate incubated for 15 mins by liquid scintillation counting method
3',5'-cyclic-AMP phosphodiesterase 4D, sequence (Q08499 whole entry, the tested form may be a part): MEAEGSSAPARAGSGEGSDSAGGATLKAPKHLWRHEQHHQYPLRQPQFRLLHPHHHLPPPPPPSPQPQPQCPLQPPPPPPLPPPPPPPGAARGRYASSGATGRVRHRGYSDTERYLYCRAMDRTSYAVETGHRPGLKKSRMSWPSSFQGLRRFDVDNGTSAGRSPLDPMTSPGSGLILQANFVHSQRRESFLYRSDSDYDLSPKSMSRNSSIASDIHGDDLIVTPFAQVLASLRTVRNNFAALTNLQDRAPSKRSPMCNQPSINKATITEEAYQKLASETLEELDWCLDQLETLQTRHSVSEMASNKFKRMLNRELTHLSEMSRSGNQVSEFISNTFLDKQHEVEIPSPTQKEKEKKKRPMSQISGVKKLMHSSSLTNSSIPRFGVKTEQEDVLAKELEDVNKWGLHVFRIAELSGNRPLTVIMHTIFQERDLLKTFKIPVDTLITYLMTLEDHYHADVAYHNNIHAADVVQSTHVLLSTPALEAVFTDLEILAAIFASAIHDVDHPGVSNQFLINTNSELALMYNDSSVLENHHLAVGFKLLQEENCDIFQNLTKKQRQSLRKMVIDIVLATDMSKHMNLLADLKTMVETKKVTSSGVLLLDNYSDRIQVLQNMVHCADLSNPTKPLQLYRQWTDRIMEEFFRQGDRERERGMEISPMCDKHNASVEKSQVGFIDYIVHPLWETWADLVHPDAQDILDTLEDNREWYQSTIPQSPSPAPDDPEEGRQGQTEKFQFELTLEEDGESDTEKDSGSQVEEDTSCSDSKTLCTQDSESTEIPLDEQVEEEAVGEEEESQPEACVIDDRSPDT

Mus musculus [2] = assay: Anti-VaD activity against UCCAO-induced spatial memory deficient C57BL/6J mouse model assessed as improvement in spatial learning and memory by measuring increase in frequency of platform area crossings at 0.7 mg/kg, po administered for 21 days by Morris water maze test; format: functional, organism-based
Mus musculus [3] = assay: Anti-VaD activity against UCCAO-induced spatial memory deficient C57BL/6J mouse model assessed as improvement in spatial learning and memory by measuring increase in residence time on the platform at 0.7 mg/kg, po administered for 21 days by Morris water maze test; format: functional, organism-based
Mus musculus [4] = assay: Anti-VaD activity against UCCAO-induced spatial memory deficient C57BL/6J mouse model assessed as improvement in spatial learning and memory by measuring reduction in escape latency at 0.7 mg/kg, po administered for 21 days by Morris water maze test; format: functional, organism-based
[5] = molecular target: Phosphodiesterase isozyme 4 (Homo sapiens, UniProt Q86V67); assay: Inhibition of PDE4 (unknown origin)
Phosphodiesterase isozyme 4, sequence (Q86V67 whole entry): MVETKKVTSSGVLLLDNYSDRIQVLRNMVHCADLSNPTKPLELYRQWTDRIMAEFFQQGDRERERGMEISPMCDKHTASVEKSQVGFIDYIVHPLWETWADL

[6] = Toxicity in Beagle dog assessed as animals exhibiting emesis at 1 mg/kg, po observed for 180 mins; format: organism-based, Canis lupus familiaris; conditions: in vivo, 3 h

Row | Compound | IC50 [1] [nM] | further results
1 | COc1cc2c(cc1OC)C(=O)C(CC1CCN(Cc3ccccc3)CC1)C2 (stereo not given) | – | Activity (Mus musculus [2]): Active; Activity (Mus musculus [3]): Active; Activity (Mus musculus [4]): Active
2 | COc1c(OCCCCBr)cc2oc3cc4c(c(O)c3c(=O)c2c1CC=C(C)C)C=CC(C)(C)O4 | > 10000 | –
3 | CCOC(=O)CCCCCCOc1cc2oc3cc4c(c(O)c3c(=O)c2c(CC=C(C)C)c1OC)C=CC(C)(C)O4 | > 10000 | –
4 | COc1c(OCCCBr)cc2oc3cc4c(c(O)c3c(=O)c2c1CC=C(C)C)C=CC(C)(C)O4 | > 10000 | –
5 | CCOC(=O)CCCCOc1cc2oc3cc4c(c(O)c3c(=O)c2c(CC=C(C)C)c1OC)C=CC(C)(C)O4 | > 10000 | –
6 | CCOC(=O)COc1cc2oc3cc4c(c(O)c3c(=O)c2c(CC=C(C)C)c1OC)C=CC(C)(C)O4 | > 10000 | –
7 | COc1c(OCCCCCBr)cc2oc3cc4c(c(O)c3c(=O)c2c1CC=C(C)C)C=CC(C)(C)O4 | > 10000 | –
8 | C=C(C)[C@@H]1CC[C@]2(C(=O)O)CC[C@]3(C)[C@H](CC[C@@H]4[C@@]5(C)CC[C@H](O)C(C)(C)[C@@H]5CC[C@]43C)[C@@H]12 [BETULINIC ACID] | – | IC50 [5]: 125 µM
9 | CCOC(=O)CCCCCCCCOc1cc2oc3cc4c(c(O)c3c(=O)c2c(CC=C(C)C)c1OC)C=CC(C)(C)O4 | > 10000 | –
10 | CCOC(=O)CCCCCCCOc1cc2oc3cc4c(c(O)c3c(=O)c2c(CC=C(C)C)c1OC)C=CC(C)(C)O4 | > 10000 | –
11 | COc1ccc(C2CNC(=O)C2)cc1OC1CCCC1 (stereo not given) [ROLIPRAM] | – | Activity [6]: 100%
12 | COc1c(OCCCCCCBr)cc2oc3cc4c(c(O)c3c(=O)c2c1CC=C(C)C)C=CC(C)(C)O4 | > 10000 | –

Now from value to compound, other results behind:

Row | IC50 [1] [nM] | Compound | further results
13 | > 10000 | CCOC(=O)CCCOc1cc2oc3cc4c(c(O)c3c(=O)c2c(CC=C(C)C)c1OC)C=CC(C)(C)O4 | –
14 | > 10000 | COc1c(OCCCCCCCBr)cc2oc3cc4c(c(O)c3c(=O)c2c1CC=C(C)C)C=CC(C)(C)O4 | –
15 | 99 | COc1c(OCCCCCCN2CCCC2)cc2oc3cc4c(c(O)c3c(=O)c2c1CC=C(C)C)C=CC(C)(C)O4 | –
16 | > 10000 | CCOC(=O)CCCCCOc1cc2oc3cc4c(c(O)c3c(=O)c2c(CC=C(C)C)c1OC)C=CC(C)(C)O4 | –
17 | 58 | COc1c(OCCCCCCCCC(=O)O)cc2oc3cc4c(c(O)c3c(=O)c2c1CC=C(C)C)C=CC(C)(C)O4 | –
18 | 16 | COc1c(OCCCCCCCC(=O)O)cc2oc3cc4c(c(O)c3c(=O)c2c1CC=C(C)C)C=CC(C)(C)O4 | –
19 | 76 | COc1c(OCCCCCC(=O)O)cc2oc3cc4c(c(O)c3c(=O)c2c1CC=C(C)C)C=CC(C)(C)O4 | –
20 | 622 | COc1c(OCCCCN2CCCC2)cc2oc3cc4c(c(O)c3c(=O)c2c1CC=C(C)C)C=CC(C)(C)O4 | –
21 | 200 | COc1c(OCCCCCN2CCCC2)cc2oc3cc4c(c(O)c3c(=O)c2c1CC=C(C)C)C=CC(C)(C)O4 | –
22 | 99 | COc1c(OCCCCC(=O)O)cc2oc3cc4c(c(O)c3c(=O)c2c1CC=C(C)C)C=CC(C)(C)O4 | –
23 | 480 | COc1c(OCC(=O)O)cc2oc3cc4c(c(O)c3c(=O)c2c1CC=C(C)C)C=CC(C)(C)O4 | –
24 | > 1000 | COc1c(OCCCN2CCCC2)cc2oc3cc4c(c(O)c3c(=O)c2c1CC=C(C)C)C=CC(C)(C)O4 | –
25 | 420 | COc1c(O)cc2oc3cc4c(c(O)c3c(=O)c2c1CC=C(C)C)C=CC(C)(C)O4 [MANGOSTANIN] | –
26 | 44 | COc1c(OCCCC(=O)O)cc2oc3cc4c(c(O)c3c(=O)c2c1CC=C(C)C)C=CC(C)(C)O4 | –
27 | 1310 | COc1c(O)cc2oc3cc(O)c(CC=C(C)C)c(O)c3c(=O)c2c1CC=C(C)C [MANGOSTIN] | –
28 | 148 | COc1c(OCCCCCCCN2CCCC2)cc2oc3cc4c(c(O)c3c(=O)c2c1CC=C(C)C)C=CC(C)(C)O4 | –
